Experiment [1] in a line: Antioxidant activity in ethanol. The format is functional.
Experiment [2] has as its system Bacillus subtilis. Kind of experiment: Bactericidal activity against Bacillus subtilis ATCC 9372 assessed as inhibition of bacterial growth incubated for 48 hrs by broth macrodilution method. The format is functional.
In experiment [3] the test system is Bacillus subtilis. Kind of experiment: Antibacterial activity against Bacillus subtilis ATCC 9372 assessed as inhibition of bacterial growth incubated for 48 hrs by broth macrodilution method. The format is functional.
Experiment [4] has as its system Staphylococcus aureus. Nature of the experiment: Antibacterial activity against Staphylococcus aureus ATCC 12598 assessed as inhibition of bacterial growth incubated for 48 hrs by broth macrodilution method. Type of experiment: functional.
The subject of experiment [5] is Staphylococcus aureus. Kind of experiment: Bactericidal activity against Staphylococcus aureus ATCC 12598 assessed as inhibition of bacterial growth incubated for 48 hrs by broth macrodilution method. Type of experiment: functional.
The subject of experiment [6] is Corynebacterium ammoniagenes. Nature of the experiment: Bactericidal activity against Brevibacterium ammoniagenes ATCC 6872 assessed as inhibition of bacterial growth incubated for 48 hrs by broth macrodilution method. Type of experiment: functional.
The subject of experiment [7] is Corynebacterium ammoniagenes. Nature of the experiment: Antibacterial activity against Brevibacterium ammoniagenes ATCC 6872 assessed as inhibition of bacterial growth incubated for 48 hrs by broth macrodilution method. The format is functional.
Experiment [8] concerns Micrococcus luteus. Nature of the experiment: Bactericidal activity against Micrococcus luteus ATCC 4698 assessed as inhibition of bacterial growth incubated for 48 hrs by broth macrodilution method. The format is functional.
Experiment [9] addresses T1, Seed linoleate 13S-lipoxygenase-1 (Glycine max, UniProt P08170).
T1 sequence (P08170 whole entry): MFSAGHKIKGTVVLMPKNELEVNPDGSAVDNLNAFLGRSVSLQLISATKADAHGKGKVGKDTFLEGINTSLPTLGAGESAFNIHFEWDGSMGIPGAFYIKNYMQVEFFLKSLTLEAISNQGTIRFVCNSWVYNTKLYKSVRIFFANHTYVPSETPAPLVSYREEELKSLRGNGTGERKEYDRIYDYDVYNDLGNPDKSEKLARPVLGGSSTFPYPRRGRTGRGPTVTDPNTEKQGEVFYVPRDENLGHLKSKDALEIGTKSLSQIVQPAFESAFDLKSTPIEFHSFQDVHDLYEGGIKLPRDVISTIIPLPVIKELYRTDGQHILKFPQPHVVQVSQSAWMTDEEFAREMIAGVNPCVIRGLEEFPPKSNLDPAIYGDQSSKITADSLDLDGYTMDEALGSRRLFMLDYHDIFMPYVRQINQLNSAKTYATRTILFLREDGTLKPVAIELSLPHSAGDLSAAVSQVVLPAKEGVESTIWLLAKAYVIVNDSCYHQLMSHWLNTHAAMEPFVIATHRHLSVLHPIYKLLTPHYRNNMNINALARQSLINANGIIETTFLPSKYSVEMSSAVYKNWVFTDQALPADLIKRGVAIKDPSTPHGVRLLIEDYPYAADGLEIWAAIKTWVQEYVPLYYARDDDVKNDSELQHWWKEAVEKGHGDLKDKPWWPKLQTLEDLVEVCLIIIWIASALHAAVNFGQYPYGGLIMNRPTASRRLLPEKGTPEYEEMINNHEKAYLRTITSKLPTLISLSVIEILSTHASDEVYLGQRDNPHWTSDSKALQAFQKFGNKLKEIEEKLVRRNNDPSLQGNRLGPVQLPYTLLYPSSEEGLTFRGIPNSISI
Kind of experiment: Inhibition of soybean LOX-1.

The test system of experiment [10] is Micrococcus luteus. Nature of the experiment: Antibacterial activity against Micrococcus luteus ATCC 4698 assessed as inhibition of bacterial growth incubated for 48 hrs by broth macrodilution method. Type of experiment: functional.

As usually defined, the MBC is the lowest tested concentration that kills the bacteria rather than only halting them. The term MIC denotes the lowest concentration that inhibits growth of the organism.

Regarding `CCCCCCCCOC(=O)c1cc(O)c(O)c(O)c1` [OCTYL_GALLATE], in experiment [1], the IC50 stood at 19 ppm.
In the case of `CCCCCCCCCCCCOC(=O)c1cc(O)c(O)c(O)c1` [DODECYL GALLATE], the minimum bactericidal concentration (MBC) in experiment [2], in [5], in experiment [6] and in experiment [8] was above 200 µg/mL each time. The minimal inhibitory concentration (MIC) in experiment [3], in experiment [4], in [7] and in [10] was above 200 µg/mL in each case. For the same compound, the IC50 in [9] came out at 1100 nM.

The values above are taken from ChEMBL document CHEMBL5233258, “Recent developments of gallic acid derivatives and their hybrids in medicinal chemistry: A review” (Eur J Med Chem, 2020).
